Assay results from PMC5831858, “Pharmacological characterisation of CR6086, a potent prostaglandin E2 receptor 4 antagonist, as a new potential disease-modifying anti-rheumatic drug” (Arthritis Research & Therapy, 2018).

Legend:
[1] = system: arthritic mice (collagen-induced arthritis model); assay: FACS analysis of cell populations in the joint, CIA mice; type: in vivo, mouse; settings: CR6086 60 mg/kg, naproxen 60 mg/kg, etanercept 10 mg/kg, mean ± SEM
Method: (§1) In a first study, mice were randomised into the following treatment groups: vehicle, 30 mg/kg CR6086, 60 mg/kg CR6086, 60 mg/kg naproxen and 10 mg/kg etanercept. Animals received the test drugs for 10 days. CR6086 and naproxen were administered orally once daily, whereas etanercept was administered intraperitoneally every other day. Animals treated with vehicle, 60 mg/kg CR6086, naproxen and etanercept were additionally analysed for the proportion of populations of Th17 cells, Th1 cells, regulatory T cells, B cells, macrophages, neutrophils and dendritic cells by fluorescence-activated cell sorting (FACS) after collection of blood, draining lymph nodes and joints.

[2] = system: arthritic mice (collagen-induced arthritis model); assay: CIA in mice, first study: clinical score and paw swelling; type: in vivo, mouse; settings: 10 days; CR6086 30 and 60 mg/kg, naproxen 60 mg/kg oral once daily; etanercept 10 mg/kg i.p. every other day
Method: Male DBA/1 mice were immunised by intradermal injection at the base of the tail with an emulsion of 200 μg of bCII in CFA containing 3 mg/ml Mycobacterium tuberculosis. Non-immunised mice served as the negative control of disease. Animals were monitored by visual inspection for appearance of peripheral oedema. […] Upon onset, animals were recruited and randomised. Recruitment was given a cut-off at day 40. Upon recruitment, arthritis clinical score was assigned, and oedema was measured via caliper.
as §1
Oedema measurement was performed every day before treatment, and all animals were blindly scored for clinical signs of arthritis as follows: 0 = normal; 1 = slight swelling and/or erythema; 2 = pronounced oedematous swelling; and 3 = ankyloses and severe swelling. A score of 0.5 was given to swollen toe/toes or when inflammation was localised to one part of the foot. Each limb was measured separately, with a final score based on the sum of the scores from all four paws.

IL-17 release = IL-17 release from human Th17 cells; type: cell-based; settings: 1–10 μM
Method: PBMCs were purified using Histopaque. CD4^+CD45^+ naive T cells were indirectly selected in a magnetic field (MACS; Miltenyi Biotec). Purified CD4^+ cells were subsequently cultured for 7 days in differentiation medium (RPMI 1640 + FBS 10%, IL-6 30 ng/ml, transforming growth factor [TGF]-β 2.25 ng/ml, IL-23 30 ng/ml, IL-1β 20 ng/ml, anti-interferon (IFN)-γ 1 ng/ml and anti-IL-4 2.5 ng/ml). Th17 cell expansion was stimulated by addition of anti-CD3/[…]anti-CD28 beads to the medium with a cell-to-beads ratio of 1:2. Th17 cells were stimulated with IL-6 30 ng/ml, TGF-β 2.25 ng/ml, IL-23 30 ng/ml, IL-1β 20 ng/ml and PGE2 10 nM for 48 h in the presence of CR6086 (0.03–10 μM) or naproxen (1–10 μM). IL-17 release was measured by ELISA (Abcam, Cambridge, UK).

[3] = system: arthritic mice (collagen-induced arthritis model); assay: CIA in mice, second study: serum cytokines and signal limb histology; type: in vivo, mouse; settings: 60 mg/kg oral daily, 10 days; mean ± SEM
IL-23 release = IL-23 release from human dendritic cells; type: cell-based; settings: Dendritic cell, at 10 μM, read-out: inhibition of IL-23 release (plateau)
Method: PBMCs were purified using Histopaque (Sigma-Aldrich, St. Louis, MO, USA). CD14^+ cells were positively selected in a magnetic field (magnetic-activated cell sorting [MACS]; Miltenyi Biotec, Bergisch Gladbach, Germany). Purified CD14^+ cells were subsequently cultured for 7 days in differentiation medium (RPMI 1640 + 10% FBS, granulocyte-macrophage colony-stimulating factor 50 ng/ml and IL-4 100 ng/ml) and then stimulated with LPS (10 ng/ml), R848 2.5 μg/ml and PGE2 10 nM for 24 h in the presence of CR6086 (0.01–30 μM) or naproxen (1–30 μM). IL-23 release was measured by enzyme-linked immunosorbent assay (ELISA) (R&D Systems, Minneapolis, MN, USA).

rat arthritis models = system: rat arthritis models; parameters: method as in FDA pharmacological review; settings: ref FDA pharmacological review; cited from earlier work
mouse arthritis models = system: mouse arthritis models; parameters: method as in FDA pharmacological review; settings: ref FDA pharmacological review; cited from earlier work

Row | Structure (SMILES) | B cells, Percentage of total cells [1] | Dendritic cells, Percentage of total cells [1] | Macrophages, Percentage of total cells [1] | Neutrophils, Percentage of total cells [1] | Th1, Percentage of total cells [1] | Th17, Percentage of total cells [1] | Treg, Percentage of total cells [1] | effect on disease parameters (visual clinical score, paw swelling) vs vehicle [2] | effect on IL-17 release (IL-17 release) | IFNγ serum concentration [3] | IL-10 serum concentration [3] | IL-17 serum concentration [3] | TNFα serum concentration [3] | inhibition at 10 µM (IL-23 release) | potency in rat arthritis models (rat arthritis models) | potency in mouse arthritis models (mouse arthritis models)
1 | COc1ccc2cc([C@H](C)C(=O)O)ccc2c1 [Naproxen, naproxen, reference compound] | 5.77 ± 1.16% | 1.96 ± 0.48% | 16.31 ± 4.44% | 16.47 ± 4.48% | 0.35 ± 0.07% | 0.21 ± 0.08% | 0.63 ± 0.22% | ineffective | inactive | 3.48 ± 1.10 pg/mL | 16.21 ± 2.23 pg/mL | 2.58 ± 0.43 pg/mL | 43.01 ± 4.55 pg/mL | ~50% |  | 
2 | C[C@@H]1CCN(C(=O)CC#N)C[C@@H]1N(C)c1ncnc2[nH]ccc12 [tofacitinib] |  |  |  |  |  |  |  |  |  |  |  |  |  |  | 6.2 mg/kg | 50 mg/kg
